From US20260265233A1, “BENZOTHIOPHENE DERIVATIVES AS RXFP1 AGONISTS” (BRISTOL-MYERS SQUIBB COMPANY, priority 2021, published 2026)

target: T1, human RXFP1 (Homo sapiens, UniProt Q9HBX9); test: hRXFP1 HEK293 cAMP assay (HTRF); type: cell-based; settings: HEK293 cells stably expressing human RXFP1; 30 min at rt; intracellular cAMP by HTRF
T1 construct: expressed in transfected cells
T1 sequence (Q9HBX9 1-757): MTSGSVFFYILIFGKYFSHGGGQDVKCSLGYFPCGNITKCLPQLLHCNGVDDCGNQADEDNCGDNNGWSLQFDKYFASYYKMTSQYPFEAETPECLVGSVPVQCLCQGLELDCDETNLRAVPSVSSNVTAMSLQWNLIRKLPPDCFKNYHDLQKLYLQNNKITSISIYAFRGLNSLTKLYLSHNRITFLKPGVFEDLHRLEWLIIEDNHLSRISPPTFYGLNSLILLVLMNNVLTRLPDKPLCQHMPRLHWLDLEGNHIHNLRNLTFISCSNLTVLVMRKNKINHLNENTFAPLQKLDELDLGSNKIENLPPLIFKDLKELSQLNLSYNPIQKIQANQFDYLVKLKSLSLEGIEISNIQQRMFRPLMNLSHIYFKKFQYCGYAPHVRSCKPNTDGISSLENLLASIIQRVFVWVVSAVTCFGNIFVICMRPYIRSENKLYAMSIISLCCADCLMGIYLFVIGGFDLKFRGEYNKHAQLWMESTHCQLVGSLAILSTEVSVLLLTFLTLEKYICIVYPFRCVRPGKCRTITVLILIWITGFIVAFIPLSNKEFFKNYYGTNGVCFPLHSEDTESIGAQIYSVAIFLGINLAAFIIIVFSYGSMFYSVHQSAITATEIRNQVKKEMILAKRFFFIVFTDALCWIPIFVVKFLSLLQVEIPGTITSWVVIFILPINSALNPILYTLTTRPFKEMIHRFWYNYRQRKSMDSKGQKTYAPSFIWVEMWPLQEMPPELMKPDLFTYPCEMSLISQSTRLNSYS
Outline: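 HEK293 cells stably expressing human RXFP1 treated 30 min at rt with compound (0.010 nM to 50 μM, 2% DMSO) in HBSS/HEPES buffer with 0.5 mM IBMX. Intracellular cAMP measured by HTRF (665/590 nm ratio) against a cAMP standard curve; potency fitted by 4-parameter logistic.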

EC50	Compound
295 nM	COc1ccc(C2CC2C(=O)O)cc1C(=O)Nc1c(C(=O)Nc2ccc(F)c(C(F)(F)F)c2)sc2cc(C(F)(F)F)ccc12 (stereo not drawn) [Example 46, 2-(3-((2-((4-fluoro-3-(trifluoromethyl)phenyl)carbamoyl)-6-(trifluoromethyl)benzo[b]thiophen-3-yl)carbamoyl)-4-methoxyphenyl) cyclopropane-1-carboxylic acid]
617 nM	COc1ccc(C2CC2CO)cc1C(=O)Nc1c(C(=O)Nc2ccc(F)c(C(F)(F)F)c2)sc2cc(C(F)(F)F)ccc12 (stereo not drawn) [Example 49, N-(4-fluoro-3-(trifluoromethyl)phenyl)-3-(5-(2-(hydroxymethyl)cyclopropyl)-2-methoxybenzamido)-6-(trifluoromethyl) benzo[b]thiophene-2-carboxamide]
166 nM	COc1ccc(C2=NOC3CS(=O)(=O)CC23)cc1C(=O)Nc1c(C(=O)Nc2ccc(F)c(C(F)(F)F)c2)sc2cc(C(F)(F)F)ccc12 (stereo not drawn) [Example 52, 3-(5-(5,5-dioxido-3a, 4,6,6a-tetrahydrothieno[3,4-d]isoxazol-3-yl)-2-methoxybenzamido)-N-(4-fluoro-3-(trifluoromethyl)phenyl)-6-(trifluoromethyl)benzo[b]thiophene-2-carboxamide]
636 nM	COC(=O)C1CC(c2ccc(OC)c(C(=O)Nc3c(C(=O)Nc4ccc(F)c(C(F)(F)F)c4)sc4cc(C(F)(F)F)ccc34)c2)=NO1 (stereo not drawn) [Example 57, methyl 3-(3-((2-((4-fluoro-3-(trifluoromethyl)phenyl)carbamoyl)-6-(trifluoromethyl)benzo[b]thiophen-3-yl)carbamoyl)-4-methoxyphenyl)-4,5-dihydroisoxazole-5-carboxylate]
612 nM	COc1ccc(C2=NCC3(CCCCC3)O2)cc1C(=O)Nc1c(C(=O)Nc2ccc(F)c(C(F)(F)F)c2)sc2cc(C(F)(F)F)ccc12 [Example 58, N-(4-fluoro-3-(trifluoromethyl)phenyl)-3-(2-methoxy-5-(1-oxa-3-azaspiro[4.5]dec-2-en-2-yl)benzamido)-6-(trifluoromethyl)benzo[b]thiophene-2-carboxamide]
216 nM	COc1ccc(-c2noc(C(C)(C)O)n2)cc1C(=O)Nc1c(C(=O)Nc2ccc(F)c(C(F)(F)F)c2)sc2cc(C(F)(F)F)ccc12 [Example 59, N-(4-fluoro-3-(trifluoromethyl)phenyl)-3-(5-(5-(2-hydroxypropan-2-yl)-1,2,4-oxadiazol-3-yl)-2-methoxybenzamido)-6-(trifluoromethyl) benzo[b]thiophene-2-carboxamide]
897 nM	COc1ccc(N2CCC(NCCO)C2)cc1C(=O)Nc1c(C(=O)Nc2ccc(F)c(C(F)(F)F)c2)sc2cc(C(F)(F)F)ccc12 (stereo not drawn) [Example 66, N-(4-fluoro-3-(trifluoromethyl)phenyl)-3-(5-(3-((2-hydroxyethyl)amino)pyrrolidin-1-yl)-2-methoxy-benzamido)-6-(trifluoromethyl) benzo[b] thiophene-2-carboxamide]
1290 nM	COc1ccc(N2CCC(NCCS(C)(=O)=O)C2)cc1C(=O)Nc1c(C(=O)Nc2ccc(F)c(C(F)(F)F)c2)sc2cc(C(F)(F)F)ccc12 (stereo not drawn) [Example 67, N-(4-fluoro-3-(trifluoromethyl)phenyl)-3-(2-methoxy-5-(3-((2-(methylsulfonyl)ethyl)amino)pyrrolidin-1-yl)benzamido)-6-(trifluoromethyl) benzo[b] thiophene-2-carboxamide]
1080 nM	COc1ccc(N2CCC(NCCS(C)(=O)=O)C2)cc1C(=O)Nc1c(C(=O)Nc2ccc(F)c(C(F)(F)F)c2)sc2cc(C(F)(F)F)ccc12 (stereo not drawn) [Example 68, N-(4-fluoro-3-(trifluoromethyl)phenyl)-3-(2-methoxy-5-(3-((2-(methylsulfonyl)ethyl)amino)pyrrolidin-1-yl)benzamido)-6-(trifluoromethyl) benzo[b] thiophene-2-carboxamide]
2710 nM	COc1ccc(C2CCCN(CCS(C)(=O)=O)CC2)cc1C(=O)Nc1c(C(=O)Nc2ccc(F)c(C(F)(F)F)c2)sc2cc(C(F)(F)F)ccc12 (stereo not drawn) [Example 71, N-(4-fluoro-3-(trifluoromethyl)phenyl)-3-(2-methoxy-5-(1-(2-(methylsulfonyl)ethyl)azepan-4-yl)benzamido)-6-(trifluoromethyl) benzo[b] thiophene-2-carboxamide]
3370 nM	COc1ccc(C2CCCN(CCS(C)(=O)=O)CC2)cc1C(=O)Nc1c(C(=O)Nc2ccc(F)c(C(F)(F)F)c2)sc2cc(C(F)(F)F)ccc12 (stereo not drawn) [Example 74, N-(4-fluoro-3-(trifluoromethyl)phenyl)-3-(2-methoxy-5-(1-(2-(methylsulfonyl)ethyl)azepan-4-yl)benzamido)-6-(trifluoromethyl) benzo[b] thiophene-2-carboxamide]
835 nM	CNC(=O)CN1CCCC(c2ccc(OC)c(C(=O)Nc3c(C(=O)Nc4ccc(F)c(C(F)(F)F)c4)sc4cc(C(F)(F)F)ccc34)c2)C1 (stereo not drawn) [Example 78, N-(4-fluoro-3-(trifluoromethyl)phenyl)-3-(2-methoxy-5-(1-(2-(methylamino)-2-oxoethyl)piperidin-3-yl)benzamido)-6-(trifluoromethyl) benzo[b] thiophene-2-carboxamide]
390 nM	COc1ccc(C2CCCN(C(=O)OC(C)(C)C)C2)cc1C(=O)Nc1c(C(=O)Nc2ccc(F)c(C(F)(F)F)c2)sc2cc(C(F)(F)F)ccc12 (stereo not drawn) [Example 79, tert-butyl 3-(3-((2-((4-fluoro-3-(trifluoromethyl)phenyl)carbamoyl)-6-(trifluoromethyl)benzo[b]thiophen-3-yl)carbamoyl)-4-methoxyphenyl) piperidine-1-carboxylate]
237 nM	COC(=O)C(=O)N1CCCC(c2ccc(OC)c(C(=O)Nc3c(C(=O)Nc4ccc(F)c(C(F)(F)F)c4)sc4cc(C(F)(F)F)ccc34)c2)C1 (stereo not drawn) [Example 80, methyl 2-(3-(3-((2-((4-fluoro-3-(trifluoromethyl)phenyl)carbamoyl)-6-(trifluoromethyl)benzo[b]thiophen-3-yl)carbamoyl)-4-methoxyphenyl)piperidin-1-yl)-2-oxoacetate]
203 nM	COc1ccc(C2CCCN(C(=O)C(=O)O)C2)cc1C(=O)Nc1c(C(=O)Nc2ccc(F)c(C(F)(F)F)c2)sc2cc(C(F)(F)F)ccc12 (stereo not drawn) [Example 81, 2-(3-(3-((2-((4-fluoro-3-(trifluoromethyl)phenyl)carbamoyl)-6-(trifluoromethyl)benzo[b]thiophen-3-yl)carbamoyl)-4-methoxyphenyl)piperidin-1-yl)-2-oxoacetic acid]
608 nM	COc1ccc(C2CCCN(CC(N)=O)C2)cc1C(=O)Nc1c(C(=O)Nc2ccc(F)c(C(F)(F)F)c2)sc2cc(C(F)(F)F)ccc12 (stereo not drawn) [Example 83, 3-(5-(1-(2-amino-2-oxoethyl)piperidin-3-yl)-2-methoxy-benzamido)-N-(4-fluoro-3-(trifluoromethyl)phenyl)-6-(trifluoromethyl) benzo[b] thiophene-2-carboxamide]
226 nM	COc1ccc(C2CCCN(C3COC3)C2)cc1C(=O)Nc1c(C(=O)Nc2ccc(F)c(C(F)(F)F)c2)sc2cc(C(F)(F)F)ccc12 (stereo not drawn) [Example 84, N-(4-fluoro-3-(trifluoromethyl)phenyl)-3-(2-methoxy-5-(1-(oxetan-3-yl)piperidin-3-yl)benzamido)-6-(trifluoromethyl) benzo[b] thiophene-2-carboxamide]
1110 nM	COc1ccc(C2CCCN(CCO)C2)cc1C(=O)Nc1c(C(=O)Nc2ccc(F)c(C(F)(F)F)c2)sc2cc(C(F)(F)F)ccc12 (stereo not drawn) [Example 85, N-(4-fluoro-3-(trifluoromethyl)phenyl)-3-(5-(1-(2-hydroxyethyl)piperidin-3-yl)-2-methoxy-benzamido)-6-(trifluoromethyl) benzo[b] thiophene-2-carboxamide]
1540 nM	COc1ccc(C2CCCN(CC(O)CO)C2)cc1C(=O)Nc1c(C(=O)Nc2ccc(F)c(C(F)(F)F)c2)sc2cc(C(F)(F)F)ccc12 (stereo not drawn) [Example 88, 3-(5-(1-(2,3-dihydroxypropyl)piperidin-3-yl)-2-methoxy-benzamido)-N-(4-fluoro-3-(trifluoromethyl)phenyl)-6-(trifluoromethyl) benzo[b] thiophene-2-carboxamide]
2180 nM	COc1ccc(C2CCCN(CC(C)C)C2)cc1C(=O)Nc1c(C(=O)Nc2ccc(F)c(C(F)(F)F)c2)sc2cc(C(F)(F)F)ccc12 (stereo not drawn) [Example 89, N-(4-fluoro-3-(trifluoromethyl)phenyl)-3-(5-(1-isobutylpiperidin-3-yl)-2-methoxy-benzamido)-6-(trifluoromethyl) benzo[b] thiophene-2-carboxamide]
1580 nM	COc1ccc(C2CCCN(CCCO)C2)cc1C(=O)Nc1c(C(=O)Nc2ccc(F)c(C(F)(F)F)c2)sc2cc(C(F)(F)F)ccc12 (stereo not drawn) [Example 90, N-(4-fluoro-3-(trifluoromethyl)phenyl)-3-(5-(1-(3-hydroxypropyl)piperidin-3-yl)-2-methoxy-benzamido)-6-(trifluoromethyl) benzo[b] thiophene-2-carboxamide]
